Measurements taken from ChEMBL document CHEMBL6109080, “Synthesis and mechanistic insights of Coumarinyl-Indolinone hybrids as potent inhibitors of Leishmania major” (Eur J Med Chem, 2025).

Assays:
Leishmania major [1] = assay: Antileishmanial activity against […] promastigote form of Leishmania major assessed as inhibition of parasite growth by alamar-blue reduction assay; type: functional, organism-based
Leishmania major [2] = assay: Antileishmanial activity against intracellular amastigotes form of Leishmania major assessed as inhibition of parasite growth by alamar-blue reduction assay; type: functional, organism-based
Leishmania infantum = assay: Antileishmanial activity against Leishmania infantum MHOM/MA(BE)/67 infected in mouse peritoneal macrophage cell incubated for 5 days by giemsa staining based analysis; type: functional, organism-based; conditions: MHOM/MA(BE)/67, Peritoneal macrophage cell, 120 h
Leishmania major [3] = assay: Antileishmanial activity against Leishmania major promastigotes assessed as parasite survival preincubated with 100 uM folinic acid for 1 hrs followed by compound addition and measured after 48 hrs by hemocytometric analysis relative to control; type: functional
[4] = Renal toxicity in male mouse assessed as serum urea level at 200 mg/kg, ip measured after 48 hrs (reference value: 36.51 +/- 1.51 mg/dl); type: organism-based; conditions: in vivo
[5] = Selectivity index, ratio of CC50 for cytotoxicity against African green monkey Vero cells assessed as reduction in cell viability to IC50 for antileishmanial activity against Leishmania major amastigotes assessed as inhibition of parasite growth; type: toxicity, cell-based; conditions: read-out: Ratio CC50/IC50
[6] = Renal toxicity in male mouse assessed as serum creatinine level at 200 mg/kg, ip measured after 48 hrs (reference value: 0.66 +/- 0.02 mg/dl); type: organism-based; conditions: in vivo
[7] = Hepatotoxicity in male mouse assessed as AST level at 200 mg/kg, ip measured after 48 hrs (reference value: 47.72 +/- 4.77 U/L); type: toxicity, organism-based; conditions: in vivo
[8] = Toxicity in male mouse assessed as CK-MB level at 50 mg/kg, ip measured after 48 hrs (reference value: 41.27 +/- […]); type: organism-based; conditions: in vivo
[9] = Cytotoxicity against African green monkey Vero cells assessed as reduction in cell survival incubated for 72 hrs by crystal violet staining based analysis; type: toxicity; conditions: chlorocebus sabaeus
Leishmania major [10] = assay: Antileishmanial activity against Leishmania major promastigotes assessed as parasite survival preincubated with 100 uM folic acid for 1 hrs followed by compound addition and measured after 48 hrs by hemocytometric analysis relative to control; type: functional
Leishmania major [11] = assay: Antileishmanial activity against Leishmania major promastigotes assessed as parasite survival measured after 72 hrs by hemocytometric analysis relative to control; type: functional
Leishmania major [12] = assay: Antileishmanial activity against Leishmania major promastigotes assessed as parasite survival preincubated with 20 uM folic acid for 1 hrs followed by compound addition and measured after 48 hrs by hemocytometric analysis relative to control; type: functional
[13] = Toxicity in male mouse assessed as CK-MB level at 200 mg/kg, ip measured after 48 hrs (reference value: 41.27 +/- […]); type: organism-based; conditions: in vivo
[14] = Hepatotoxicity in male mouse assessed as ALT level at 200 mg/kg, ip measured after 48 hrs (reference value: 28.23 +/- 6.57 U/L); type: toxicity, organism-based; conditions: in vivo
[15] = Hepatotoxicity in male mouse assessed as ALT level at 50 mg/kg, ip measured after 48 hrs (reference value: 28.23 +/- 6.57 U/L); type: toxicity, organism-based; conditions: in vivo
[16] = Hepatotoxicity in male mouse assessed as AST level at 50 mg/kg, ip measured after 48 hrs (reference value: 47.72 +/- 4.77 U/L); type: toxicity, organism-based; conditions: in vivo
Leishmania major [17] = assay: Antileishmanial activity against Leishmania major promastigotes assessed as parasite survival preincubated with 20 uM folinic acid for 1 hrs followed by compound addition and measured after 48 hrs by hemocytometric analysis relative to control; type: functional
[18] = Hepatotoxicity in male mouse assessed as effect on ALP level at 200 mg/kg, ip measured after 48 hrs (reference value: 115.44 +/- 8.03 U/L); type: toxicity, organism-based; conditions: in vivo
[19] = Renal toxicity in male mouse assessed as serum creatinine level at 50 mg/kg, ip measured after 48 hrs (reference value: 0.66 +/- 0.02 mg/dl); type: organism-based; conditions: in vivo
[20] = Renal toxicity in male mouse assessed as serum urea level at 50 mg/kg, ip measured after 48 hrs (reference value: 36.51 +/- 1.51 mg/dl); type: organism-based; conditions: in vivo
[21] = Hepatotoxicity in male mouse assessed as ALP level at 50 mg/kg, ip measured after 48 hrs (reference value: 115.44 +/- 8.03 U/L); type: toxicity, organism-based; conditions: in vivo
Leishmania major [22] = assay: Antileishmanial activity against Leishmania major promastigotes assessed as parasite survival at 100 uM measured after 72 hrs by hemocytometric analysis relative to control

| Structure (SMILES) | IC50 (Leishmania major [1]) [µM] | IC50 (Leishmania major [2]) [µM] | further results |
| --- | --- | --- | --- |
| CC(C)CN1C(=O)C(n2nc(-c3c(O)c4ccccc4oc3=O)cc2-c2ccc(Br)cc2)c2cc(Br)ccc21 (stereo unspecified) | 6.93 | 8.22 | – |
| CCCN1C(=O)C(n2nc(-c3c(O)c4ccccc4oc3=O)cc2-c2ccc(Br)cc2)c2cc(Cl)ccc21 (stereo unspecified) | 4.73 | 6.82 | – |
| CC(C)CN1C(=O)C(n2nc(-c3c(O)c4ccccc4oc3=O)cc2-c2ccc(F)cc2)c2cc(Cl)ccc21 (stereo unspecified) | 5.71 | 7.28 | – |
| CC(C)CN1C(=O)C(n2nc(-c3c(O)c4ccccc4oc3=O)cc2-c2ccc(F)cc2)c2cc(Br)ccc21 (stereo unspecified) | 6.22 | 6.87 | – |
| O=C(Nc1cc(-c2ccccc2F)n[nH]1)Oc1ccccc1 | – | – | IC50 (Leishmania infantum): 20 µM |
| O=C1Nc2ccc([N+](=O)[O-])cc2C1n1nc(-c2c(O)c3ccccc3oc2=O)cc1-c1ccc(Cl)cc1 (stereo unspecified) | 1.43 | 1.44 | Survival (Leishmania major [3]): 85%; Activity [4]: 38.32 mg/dL; selectivity ratio [5]: 42.3; Activity [6]: 0.61 mg/dL; Activity [7]: 48.89 U/L; Activity [8]: 44.71 U/L; CC50 at 72 h [9]: 60.7 µM; Survival (Leishmania major [10]): 73%; Survival (Leishmania major [11]): 21%; Survival (Leishmania major [12]): 68%; Activity [13]: 44.71 U/L; Activity [14]: 32.59 U/L; Activity [15]: 29.39 U/L; Activity [16]: 45.98 U/L; Survival (Leishmania major [17]): 78%; Activity [18]: 113.63 U/L; Activity [19]: 0.62 mg/dL; Activity [20]: 34.17 mg/dL; Activity [21]: 106.35 U/L |
| O=C1Nc2ccc([N+](=O)[O-])cc2C1n1nc(-c2c(O)c3ccccc3oc2=O)cc1-c1ccc(Br)cc1 (stereo unspecified) | 2.47 | 3.88 | – |
| CN1C(=O)C(n2nc(-c3c(O)c4ccccc4oc3=O)cc2-c2ccc(F)cc2)c2cc(Cl)ccc21 (stereo unspecified) | 4.05 | 6.82 | – |
| O=C1C(n2nc(-c3c(O)c4ccccc4oc3=O)cc2-c2ccc(Cl)cc2)c2ccccc2N1CCc1ccccc1 (stereo unspecified) | 5.92 | 8.47 | – |
| O=C1C(n2nc(-c3c(O)c4ccccc4oc3=O)cc2-c2ccc(Br)cc2)c2ccccc2N1CCc1ccccc1 (stereo unspecified) | 7.21 | 9.44 | – |
| CCCN1C(=O)C(n2nc(-c3c(O)c4ccccc4oc3=O)cc2-c2ccc(F)cc2)c2cc(Cl)ccc21 (stereo unspecified) | 4.64 | 5.82 | – |
| CC(C)CN1C(=O)C(n2nc(-c3c(O)c4ccccc4oc3=O)cc2-c2ccc(Br)cc2)c2cc(Cl)ccc21 (stereo unspecified) | 5.07 | 6.64 | – |
| CCCN1C(=O)C(n2nc(-c3c(O)c4ccccc4oc3=O)cc2-c2ccc(Cl)cc2)c2cc(Cl)ccc21 (stereo unspecified) | 5.6 | 7.29 | – |
| COc1ccc(-c2cc(NC(=O)N3CCC(Cc4ccccc4)CC3)[nH]n2)cc1 | – | – | IC50 (Leishmania infantum): 19 µM |
| CC(C)CN1C(=O)C(n2nc(-c3c(O)c4ccccc4oc3=O)cc2-c2ccc(Cl)cc2)c2cc(Cl)ccc21 (stereo unspecified) | 6.59 | 8.25 | – |
| CC(C)CN1C(=O)C(n2nc(-c3c(O)c4ccccc4oc3=O)cc2-c2ccc(Cl)cc2)c2cc(Br)ccc21 (stereo unspecified) | 5.99 | 7.54 | – |
| COc1cc(Cc2cnc(N)nc2N)cc(OC)c1OC [TRIMETHOPRIM] | – | – | Survival (Leishmania major [10]): 99%; survival at 100 µM (Leishmania major [22]): 72% |
